Measured values published in patent US7928186B2, “Cell permeable bioactive peptide conjugates” (Phoenix Pharmaceuticals, Inc., priority 2006, dated 2011).
Bridge positions count the residues as written; N and C are the ends. Ends that are not written are not given here. * marks the point of attachment. Acm = CC(=O)NC*

Experiments:
[1] = system: dissociate and cultured cortical neurons; experiment: Mobilization of intracellular Ca2+ in dissociate cultured cortical neurons (Fura-2 AM fluorescence); format: cell-based, rat (newborn Sprague-Dawley)
Text: Neurons can be isolated from cerebral cortex according to the protocols for postnatal dissociated nuerons as disclosed for example by Huettner, J. E. and Baughman, R. W., Primary Culture of Identified Neurons From the Visual Cortex of Postnatal Rats, Journal of Neurosciences 6; 3044-3060 (1986); Brewer, G. J., Isolation and Culture of Adult Rat Hippocampal Neurons, Journal of Neuroscience Methods, 71:143-155 (1997); and Brailoiu et al., NAADP Potentiates Neurite Outgrowth, Journal of Biological Chemistry (in press), each hereby incorporated by reference. Newborn Sprague-Dawley rates (about 1 day to about 4 days old) were killed by cervical dislocation. Cerebral cortex was removed and quickly immersed in ice-cold phosphate buffer solution. After removal of meninges, tissue was minced into about I-millimeter blocks, incubated for about 45 minutes at 37° C. in Hanks balanced salt solution without Ca^2+ and Mg^2+ (Invitrogen, 1600 Faraday Avenue, Carlsbad, Calif. 92008) and supplemented with about 200 ug/mL penicillin, 0.1% EDTA and papain 0.15 mg/mL (Sigma-Aldrich, St. Louis, Mo.). In accordance with the procedure disclosed by Brewer, the tissue can be further dissociated by gentle mechanical trituration. After centrifugation at 500×g, cells can be re-suspended in fetal serum free media containing Neurobasal-ATM medium supplemented with […], 100 unites penicillin, 100 ug streptomycin, and B27 supplement all of which can be obtained for example from Invitrogen. The resulting cells can be plated at a low density of about 10^4 on round glass coverslips in twenty four well plates. Neurons were cultured at 37° C. in […] and 5% carbon dioxide for about 3 days to about 5 days. The mitotic inhibitor, cytosine P-arabino furanosidde (about 1 μM) which can be obtained from Sigma-Aldrich can be added to cultured neurons to inhibit glial cell proliferation according to the procedure disclosed by Billingsley, M. L. and Mandel, H. G., Effects of DNA Synthesis Inhibitors on Post-Traumatic Glial Cell Proliferation, Journal of Pharmacology and Experimental Therapeutics, 222: 765-770 (1982).
Measurement of mobilized intracellular calcium ion (Ca^2+) in dissociate cultured neurons in response to peptide fragments of HIV-1 Tat polypeptides can be performed as disclosed by Brailoiu E. et al. Neurons cultured about 24 hours on coverslips as above-described were loaded in HBBS with 5μ Fura-2 AM dye at room temperature (about 20° C.) for about 45 minutes in the dark, then washed three times with Fura-2 AM free buffer and allowed to incubate to allow de-esterification of the dye for about 45 minutes. Under these conditions, compartmentalization of the dye was minimal (about 9.2%±0.2% n=6) as judged from the ratio of fluorescence signals after selective permeabilization of the plasma membrane (10 μM β-escein) and full permeabilization of the cultured cells (60 μg/mL saponin). The coverslips were mounted in a custom designed bath on the stage of a S300 Axiovert […] inverted microscope equipped with a C&L Instruments fluorimeter as described by Brailoiu et al. The Fura-2 fluorescent signal was calibrated by successive addition of 20 μg/mL digitonin, 20 mM EDTA, and 0.5 mM MnCl2.
Table 1. Effect of HIV1-Tat Polypeptides on [Ca^2+] Response in Dissociate and Cultured Cortical Neurons

humans = conditions: infusion of normal postprandial concentrations, over 24 h; cited from earlier work
[2] = system: rat medulla oblongata (NTS, RVLM); conditions: cited from earlier work

Substance | [Ca^2+] response ([1]; n = 5-10) | other results
HIV1 30-57 (Cys30-Cys34)(Cys 31-Cys37) (CCFHCQVCFITKALGISYGRKKRRQRRR; disulfide 1-5, 2-8) [HIV1 30-57 (Cys30-Cys34)(Cys31-Cys37)] | 528 ± 60 nM | –
HIV1 62-86 (SQTHQASLSKQPTSQPRGDPTGPKE; Human immunodeficiency virus type 1) [peptide fragment of the C-terminal region of the HIV1 30-86 peptide] | No Response | –
HIV1 30-86 (Cys30-Cys34)(Cys31-Cys37) (CCFHCQVCFITKALGISYGRKKRRQRRRAHQNSQTHQASLSKQPTSQPRGDPTGPKE; disulfide 1-5, 2-8) | 390 ± 21 nM | –
HIV1 61-80 (NSQTHQASLSKQPTSQPRGD; Human immunodeficiency virus type 1) [peptide fragment of the C-terminal region of the HIV1 30-86 peptide] | 56 ± 20 nM | –
HIV1 30-57 (Cys30-Cys37)(Cys 31-Cys34) (CCFHCQVCFITKALGISYGRKKRRQRRR; disulfide 1-8, 2-5) [HIV1 30-57 (Cys30-Cys37)(Cys31-Cys34), 14] | 197 ± 46 nM | –
Peptide YY(3-36) [PYY(3-36)] | – | reduction of food intake (humans): 33%
HIV1 30-47 (Cys30-Cys34)(Cys31-Cys37) (CCFHCQVCFITKALGISY; disulfide 1-5, 2-8) [HIV1 30-47 (Cys 30-Cys34)(Cys 31-Cys37), HIV1 Tat fragment which lacks the second transport peptide region] | – | [Ca^2+] response ([1]; n = 5-10 in a column of its own, listed as 30-47 (Cys 30-Cys34)(Cys 31-Cys37)): No Response; [Ca^2+] response ([1]; n = 5-10 in a column of its own, listed as HIV1 30-47 (Cys30-Cys34)(Cys31-Cys37)): cannot mobilize intracellular calcium ion
HIV1 30-57 (Cys30-Cys31)(Cys 34-Cys37) (CCFHCQVCFITKALGISYGRKKRRQRRR; disulfide 1-2, 5-8) [HIV1 30-57 (Cys30-Cys31)(Cys34-Cys37)] | 258 ± 54 nM | –
HIV1 41-60 (KALGISYGRKKRRQRRRAHQ; Human immunodeficiency virus type 1) [peptide fragment of the HIV1 30-86 peptide] | 66 ± 13 nM | –
HIV1 58-86 (AHQNSQTHQASLSKQPTSQPRGDPTGPKE; Human immunodeficiency virus type 1) [peptide fragment of the C-terminal region of the HIV1 30-86 peptide] | 54 ± 28 nM | –
HIV1 48-84 (GRKKRRQRRRAHQNSQTHQASLSKQPTSQPRGDPTGP; Human immunodeficiency virus type 1) [peptide fragment of the HIV1 30-86 peptide] | 80 ± 28 nM | –
Apelin: endogenous ligands at the orphan G-protein coupled receptor, APJ (QRPRLSHKGPMPF; Apelin-13; UniProt Q9ULZ1 65-77, looked up) | – | increase in arterial pressure ([2]; microinjection into either of the NTS and the RVLM): 10-20 mm Hg; decreased phrenic nerve discharge amplitude ([2]; microinjection into the NTS): up to 30%
HIV1 30-57 (Cys31-Cys37)(Cys 31-ACM)(Cys34-ACM) (C(Acm)CFHC(Acm)QVCFITKALGISYGRKKRRQRRR; disulfide 2-8) [HIV1 30-48 (Cys 30 ACM)(Cys 31-Cys 37 disulfide)(Cys 34 ACM) with transport region HIV1 49-57] | 197 ± 35 nM | –
RKKRRQRRR (Human immunodeficiency virus type 1) [HIV1 49-57, Tat transduction domain, transport peptide region alone] | No Response | –
HIV1 32-62 (Cys34-Cys37): HIV1 Tat polypeptide fragment 32-62 with Cys34-Cys37 disulfide (FHCQVCFITKALGISYGRKKRRQRRRAHQNS; disulfide 3-6) | 752 ± 59 nM | –
